The values below come from patent publication US9796990B2 (priority 2011, dated 2017).

For series [1], the system named is Bluegill (Lepomis macrochirus). The conditions noted are these: in vivo; cited from earlier work.
For series [2], the system named is Ceriodaphnia dubia. The series is described as follows: whole plant or invertebrate. The conditions noted are these: read-out: EC 50, effective concentration for 50% survival.

Structures are written as SMILES. ≈ marks a conversion by molar mass, not a printed value. Like-named read-outs stand apart in the source and are kept apart here.

For the compound `CCOP(O)(=S)OCC` [diethyl thiophosphoric acid], the “toxicity compared with the parent compound chlorpyriphos” value in series [1] is “considerably less toxic than the parent compound”.

As to `CCOP(=S)(OCC)Oc1cc(C)nc(C(C)C)n1` [Untreated diazinon, diazinon], the figures for the EC50 in series [2] (24 h) and in series [2] (48 h) were 0.389 ng/mL (≈ 1.28 nM) and 0.195 ng/mL (≈ 0.641 nM), respectively.
